Assay results taken from PubChem BioAssay (NCI).
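Step 1: Grow cells in 96-well plates. Step 2: Expose to compound for 48 hours at 5 concentrations. Step 3: Interpolate endpoints linearly; if unreached, use highest concentration. At the GI50, growth is halved. TGI: concentration producing complete growth inhibition.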

Key:
Test in all cases: growth of human tumour cells (NCI), 48 h
786-0 renal = test system: 786-0 renal
A498 renal = test system: A498 renal
A549 NSCLC = test system: A549 NSCLC
ACHN renal = test system: ACHN renal
BT-549 breast = test system: BT-549 breast
CAKI-1 renal = test system: CAKI-1 renal
CCRF-CEM leukemia = test system: CCRF-CEM leukemia
COLO 205 colon = test system: COLO 205 colon
DU-145 prostate = test system: DU-145 prostate
HCC-2998 colon = test system: HCC-2998 colon
HCT-116 colon = test system: HCT-116 colon
HCT-15 colon = test system: HCT-15 colon
HL-60(TB) leukemia = test system: HL-60(TB) leukemia
HOP-62 NSCLC = test system: HOP-62 NSCLC
HOP-92 NSCLC = test system: HOP-92 NSCLC
HS 578T breast = test system: HS 578T breast
HT29 colon = test system: HT29 colon
IGROV1 ovarian = test system: IGROV1 ovarian
K-562 leukemia = test system: K-562 leukemia
KM12 colon = test system: KM12 colon
LOX IMVI melanoma = test system: LOX IMVI melanoma
M14 melanoma = test system: M14 melanoma
MALME-3M melanoma = test system: MALME-3M melanoma
MCF7 breast = test system: MCF7 breast
MDA-MB-231 breast = test system: MDA-MB-231 breast
MDA-MB-435 = test system: MDA-MB-435
MOLT-4 leukemia = test system: MOLT-4 leukemia
NCI-H226 lung = test system: NCI-H226 lung
NCI-H23 lung = test system: NCI-H23 lung
NCI-H460 lung = test system: NCI-H460 lung
NCI-H522 lung = test system: NCI-H522 lung
NCI/ADR-RES ovarian = test system: NCI/ADR-RES ovarian
OVCAR-3 ovarian = test system: OVCAR-3 ovarian
OVCAR-4 ovarian = test system: OVCAR-4 ovarian
OVCAR-5 ovarian = test system: OVCAR-5 ovarian
OVCAR-8 ovarian = test system: OVCAR-8 ovarian
PC-3 prostate = test system: PC-3 prostate
RPMI-8226 leukemia = test system: RPMI-8226 leukemia
RXF 393 renal = test system: RXF 393 renal
SF-268 CNS = test system: SF-268 CNS
SF-295 CNS = test system: SF-295 CNS
SF-539 CNS = test system: SF-539 CNS
SK-MEL-2 melanoma = test system: SK-MEL-2 melanoma
SK-MEL-28 melanoma = test system: SK-MEL-28 melanoma
SK-MEL-5 melanoma = test system: SK-MEL-5 melanoma
SK-OV-3 ovarian = test system: SK-OV-3 ovarian
SN12C renal = test system: SN12C renal
SNB-19 CNS = test system: SNB-19 CNS
SNB-75 CNS = test system: SNB-75 CNS
SR leukemia = test system: SR leukemia
SW-620 colon = test system: SW-620 colon
T-47D breast = test system: T-47D breast
TK-10 renal = test system: TK-10 renal
U251 CNS = test system: U251 CNS
UACC-257 melanoma = test system: UACC-257 melanoma
UACC-62 melanoma = test system: UACC-62 melanoma
UO-31 renal = test system: UO-31 renal

## Cc1cc(Nc2nc(-c3ccc(F)cc3)nc3ccccc23)n[nH]1
786-0 renal
  GI50: 1.99 µM
  TGI: 38.1 µM
A498 renal
  GI50: 0.371 µM
  TGI: 5.21 µM
A549 NSCLC
  GI50: 1.77 µM
  TGI: 18.1 µM
ACHN renal
  GI50: 0.818 µM
  TGI: 39.5 µM
BT-549 breast
  GI50: 7.3 µM
  TGI: 21.6 µM
CAKI-1 renal
  GI50: 0.453 µM
  TGI: 17.6 µM
CCRF-CEM leukemia
  GI50: 8.55 µM
  TGI: 39.6 µM
COLO 205 colon
  GI50: 1.35 µM
  TGI: 3.35 µM
DU-145 prostate
  GI50: 6.44 µM
  TGI: > 48.9 µM
HCC-2998 colon
  GI50: 5.24 µM
  TGI: 25.4 µM
HCT-116 colon
  GI50: 0.76 µM
  TGI: 15.5 µM
HCT-15 colon
  GI50: 0.673 µM
  TGI: 33.9 µM
HL-60(TB) leukemia
  GI50: 2.78 µM
  TGI: 34.8 µM
HOP-62 NSCLC
  GI50: 4.76 µM
  TGI: 20.3 µM
HOP-92 NSCLC
  GI50: 0.72 µM
  TGI: 8.64 µM
HS 578T breast
  GI50: 0.842 µM
  TGI: 7.54 µM
HT29 colon
  GI50: 0.691 µM
  TGI: 7.5 µM
IGROV1 ovarian
  GI50: 0.983 µM
  TGI: 9.17 µM
K-562 leukemia
  GI50: 3.91 µM
  TGI: 24.1 µM
KM12 colon
  GI50: 0.0631 µM
  TGI: 12 µM
LOX IMVI melanoma
  GI50: 1.05 µM
  TGI: 11.2 µM
M14 melanoma
  GI50: 0.748 µM
  TGI: 19.4 µM
MALME-3M melanoma
  GI50: 16.4 µM
  TGI: 31.8 µM
MCF7 breast
  GI50: 2.79 µM
  TGI: 18.8 µM
MDA-MB-231 breast
  GI50: 9.15 µM
  TGI: 26.8 µM
MDA-MB-435
  GI50: 1.65 µM
  TGI: 16.2 µM
MOLT-4 leukemia
  GI50: 10.1 µM
  TGI: 35.1 µM
NCI-H226 lung
  GI50: 3.36 µM
  TGI: 18 µM
NCI-H23 lung
  GI50: 5.74 µM
  TGI: 24.9 µM
NCI-H460 lung
  GI50: 3.17 µM
  TGI: 21 µM
NCI-H522 lung
  GI50: 3.44 µM
  TGI: 18.8 µM
NCI/ADR-RES ovarian
  GI50: 4.5 µM
  TGI: 52.2 µM
OVCAR-3 ovarian
  GI50: 4.9 µM
  TGI: 31.6 µM
OVCAR-4 ovarian
  GI50: 3.2 µM
  TGI: 27.8 µM
OVCAR-5 ovarian
  GI50: 10.1 µM
  TGI: 34.5 µM
OVCAR-8 ovarian
  GI50: 7.28 µM
  TGI: 36.9 µM
PC-3 prostate
  GI50: 2.26 µM
  TGI: 21.4 µM
RPMI-8226 leukemia
  GI50: 9.22 µM
  TGI: 39.1 µM
RXF 393 renal
  GI50: 0.757 µM
  TGI: 5.09 µM
SF-268 CNS
  GI50: 3.85 µM
  TGI: 24.5 µM
SF-295 CNS
  GI50: 5.36 µM
  TGI: 21.2 µM
SF-539 CNS
  GI50: 2.81 µM
  TGI: 15.4 µM
SK-MEL-2 melanoma
  GI50: 0.811 µM
  TGI: 16 µM
SK-MEL-28 melanoma
  GI50: 8.46 µM
  TGI: 21.7 µM
SK-MEL-5 melanoma
  GI50: 7.4 µM
  TGI: 20.3 µM
SK-OV-3 ovarian
  GI50: 0.855 µM
  TGI: 41.8 µM
SN12C renal
  GI50: 3.1 µM
  TGI: 25.2 µM
SNB-19 CNS
  GI50: 8.48 µM
  TGI: > 93.9 µM
SNB-75 CNS
  GI50: 0.469 µM
  TGI: 7.42 µM
SR leukemia
  GI50: 1.34 µM
  TGI: 38.4 µM
SW-620 colon
  GI50: 2.1 µM
  TGI: 15.7 µM
T-47D breast
  GI50: 1.92 µM
  TGI: 11.8 µM
TK-10 renal
  GI50: 1.25 µM
  TGI: 33.4 µM
U251 CNS
  GI50: 1.75 µM
  TGI: 21.4 µM
UACC-257 melanoma
  GI50: 10 µM
  TGI: 22.7 µM
UACC-62 melanoma
  GI50: 3.96 µM
  TGI: 19.6 µM
UO-31 renal
  GI50: 0.574 µM
  TGI: 15 µM

## O=C1C(Br)=CC2C1C1C3CCC3C2(Br)C12OCCO2 (centres undefined)
786-0 renal
  GI50: 4.32 µM
  TGI: 16 µM
A498 renal
  GI50: 2.99 µM
  TGI: 11.4 µM
A549 NSCLC
  GI50: 2.29 µM
  TGI: 10.9 µM
ACHN renal
  GI50: 2.94 µM
  TGI: 12.2 µM
BT-549 breast
  GI50: 5.03 µM
  TGI: 18.1 µM
CAKI-1 renal
  GI50: 4.1 µM
  TGI: 17.6 µM
CCRF-CEM leukemia
  GI50: 1.82 µM
  TGI: 10.5 µM
COLO 205 colon
  GI50: 3.35 µM
  TGI: 10.9 µM
DU-145 prostate
  GI50: 3.22 µM
  TGI: 13.8 µM
HCC-2998 colon
  GI50: 6.6 µM
  TGI: 20.5 µM
HCT-116 colon
  GI50: 2.08 µM
  TGI: 10.3 µM
HCT-15 colon
  GI50: 1.22 µM
  TGI: 3.49 µM
HL-60(TB) leukemia
  GI50: 2.2 µM
  TGI: 5.66 µM
HOP-62 NSCLC
  GI50: 4.25 µM
  TGI: 16.5 µM
HOP-92 NSCLC
  GI50: 5.08 µM
  TGI: 21.8 µM
HS 578T breast
  GI50: 3.46 µM
  TGI: 71 µM
HT29 colon
  GI50: 2.75 µM
  TGI: 10.3 µM
IGROV1 ovarian
  GI50: 2.89 µM
  TGI: 12.7 µM
K-562 leukemia
  GI50: 2.98 µM
  TGI: 13 µM
KM12 colon
  GI50: 2.39 µM
  TGI: 8.4 µM
LOX IMVI melanoma
  GI50: 1.21 µM
  TGI: 3.74 µM
M14 melanoma
  GI50: 4.45 µM
  TGI: 19.9 µM
MALME-3M melanoma
  GI50: 4.45 µM
  TGI: 21.3 µM
MCF7 breast
  GI50: 1.98 µM
  TGI: 12.8 µM
MDA-MB-231 breast
  GI50: 1.84 µM
  TGI: 11.4 µM
MDA-MB-435
  GI50: 2.93 µM
  TGI: 13.4 µM
MOLT-4 leukemia
  GI50: 3.64 µM
  TGI: 10.8 µM
NCI-H226 lung
  GI50: 3.55 µM
  TGI: 20.4 µM
NCI-H460 lung
  GI50: 2.08 µM
  TGI: 10.2 µM
NCI-H522 lung
  GI50: 1.82 µM
  TGI: 4.73 µM
NCI/ADR-RES ovarian
  GI50: 4.84 µM
  TGI: 41 µM
OVCAR-3 ovarian
  GI50: 3.24 µM
  TGI: 9.88 µM
OVCAR-4 ovarian
  GI50: 2.79 µM
  TGI: 14.7 µM
OVCAR-5 ovarian
  GI50: 2.47 µM
  TGI: 8.91 µM
OVCAR-8 ovarian
  GI50: 2.8 µM
  TGI: 12.3 µM
PC-3 prostate
  GI50: 3.47 µM
  TGI: 19 µM
RPMI-8226 leukemia
  GI50: 1.71 µM
  TGI: 5.76 µM
RXF 393 renal
  GI50: 2.64 µM
  TGI: 11.6 µM
SF-268 CNS
  GI50: 2.5 µM
  TGI: 15.5 µM
SF-295 CNS
  GI50: 9.69 µM
  TGI: 27.5 µM
SF-539 CNS
  GI50: 2.15 µM
  TGI: 5.99 µM
SK-MEL-2 melanoma
  GI50: 3.17 µM
  TGI: 9.09 µM
SK-MEL-28 melanoma
  GI50: 3.98 µM
  TGI: 18 µM
SK-MEL-5 melanoma
  GI50: 3.19 µM
  TGI: 14.4 µM
SK-OV-3 ovarian
  GI50: 4.3 µM
  TGI: 15.3 µM
SN12C renal
  GI50: 3.08 µM
  TGI: 15.3 µM
SNB-19 CNS
  GI50: 9.65 µM
  TGI: 23 µM
SNB-75 CNS
  GI50: 3.42 µM
  TGI: 34.7 µM
SR leukemia
  GI50: 0.721 µM
  TGI: 6.57 µM
SW-620 colon
  GI50: 3.12 µM
  TGI: 11.6 µM
T-47D breast
  GI50: 2.48 µM
  TGI: 12.9 µM
U251 CNS
  GI50: 2.88 µM
  TGI: 13 µM
UACC-257 melanoma
  GI50: 2.14 µM
  TGI: 12.5 µM
UACC-62 melanoma
  GI50: 2.87 µM
  TGI: 14.1 µM
UO-31 renal
  GI50: 3.4 µM
  TGI: 13.4 µM
